This note sets out measurements from publication PMC10295897, “A Novel MDM2-Binding Chalcone Induces Apoptosis of Oral Squamous Cell Carcinoma” (Biomedicines, 2023).

Data set [1] can be described thus: Solubility observed during in vitro testing. The data set is classed as physicochemical. The conditions noted are these: in vitro cytotoxicity testing.
A further data set concerns HCT-116 (colon cancer). The experiment in a line: MTT cell viability assay, HCT-116. The data set is classed as cell-based. The method, then:
The viability of SCC cell lines, HT-29, HCT-116, HEP2G and primary human fibroblast cells was evaluated using the MTT assay as in [26]. Briefly, the cells were grown in duplicates in 96-well plates (5 × 10^3 cells/well) until confluence. Then, the medium was removed, fresh medium was added, and the cells were returned to the incubator in the presence of different compounds. DMSO at the same concentrations was used as a 100% cell viability control. After 48 h, the cells were incubated with 5 mg/mL MTT reagent (3-(4,5-dimethyl-2-thiazolyl)-2,5-diphenyl-2-H-tetrazolium bromide) (Sigma-Aldrich Co., St. Louis, MO, USA) for 3.5 h. After that, formazan crystals were dissolved in MTT solvent solution (DMSO/methanol 1:1 v/v), and the absorbance at 560 nm was evaluated using an EPOCH microplate spectrophotometer (BioTek Instruments, Winooski, VT, USA) with the background absorbance at 670 nm subtracted. […]
The data are presented as means ± SD. […] The selectivity index was calculated as SI = IC50 of the compound in normal oral fibroblast cells/IC50 of the same compound for each cancer cell line (SCC-4, SCC-9, SCC-25, HCT-116, HT29 and HEP2G), and the mean was calculated when indicated.
For orientation: Tetrazolium assays rely on reduction of a dye to a coloured formazan, in cell work by metabolically active cells.

Another data set concerns SCC9 cells. As to the kind of experiment: Cell cycle and SubG1 analysis (PI flow cytometry). The format is cell-based, human. The conditions noted are these: SCC9, 2 × IC50, 48 h, PI staining. On the procedure:
To evaluate the action of compound 1f on the cell cycle and DNA fragmentation, SCC9 cell line cells were plated in a 6-well plate (5 × 10^5 cells/well). After 48 h of treatment, the cells were trypsinized and stained with propidium iodide (75 µM) in the presence of NP-40. The DNA content was analyzed by collecting 10,000 events using a FACScalibur flow cytometer. The data were analyzed using CellQuest (BD Biosciences, Franklin Lakes, NJ, USA) and FlowJo (Tree Star Inc., Ashland, OR, USA) software as in [34].

The test system of data set [2] is Primary Gingival Fibroblast (HGF). As to the kind of experiment: MTT cell viability assay, primary normal gingival fibroblasts. The format is cell-based, human. As to conditions: Homo sapiens, Fibroblast, 48 h. The method, then:
(§1) Human SCC-4, SCC-9, and SCC-25 cells derived from a human oral tongue SCC (squamous cell carcinoma) were obtained from the ATCC (CRL-1624, CRL-1629, and CRL-1628, respectively) and maintained in 1:1 DMEM/F12 (Dulbecco’s modified Eagle medium and Ham’s F12 medium; Gibco (Thermo Fisher, Waltham, MA, USA)) supplemented with 10% (v/v) FBS (fetal bovine serum; Invitrogen, Thermo Fisher, Waltham, MA, USA) and 400 ng/mL hydrocortisone (Sigma-Aldrich Co., St. Louis, MO, USA). Primary normal human gingival fibroblasts were obtained from the ATCC (PCS-201-018; HGF) and maintained in DMEM supplemented with 10% (v/v) FBS and were used in a maximum of six passages. The cells were grown in a humidified environment containing 5% CO2 at 37 °C. For all biological experiments, the compounds and control nutlin 3a were solubilized in 100% DMSO (all Sigma-Aldrich) to a final concentration of 10 mM. Carboplatin stock was prepared in water (Fauldcarbo®; LibbsFarmacêutica, São Paulo, SP, Brazil) and was used as a standard anticancer compound.
(§2) The viability of SCC cell lines, HT-29, HCT-116, HEP2G and primary human fibroblast cells was evaluated using the MTT assay as in [26]. Briefly, the cells were grown in duplicates in 96-well plates (5 × 10^3 cells/well) until confluence. Then, the medium was removed, fresh medium was added, and the cells were returned to the incubator in the presence of different compounds. DMSO at the same concentrations was used as a 100% cell viability control. After 48 h, the cells were incubated with 5 mg/mL MTT reagent (3-(4,5-dimethyl-2-thiazolyl)-2,5-diphenyl-2-H-tetrazolium bromide) (Sigma-Aldrich Co., St. Louis, MO, USA) for 3.5 h. After that, formazan crystals were dissolved in MTT solvent solution (DMSO/methanol 1:1 v/v), and the absorbance at 560 nm was evaluated using an EPOCH microplate spectrophotometer (BioTek Instruments, Winooski, VT, USA) with the background absorbance at 670 nm subtracted. Each of the six compounds was tested at six or seven different concentrations, ranging from 0.3 µM to 200 µM in cancer cell lines (SCC-4, SCC-9 and SCC-25) and 0.3 µM to 200 µM in primary normal human gingival fibroblasts. Controls (carboplatin, nutlin 3a) were tested at six or seven different concentrations ranging from 0.05 µM to 1000 µM in cancer cells and normal cells, depending on the compound.
(§3) The data are presented as means ± SD. IC values for the MTT assays were obtained by nonlinear regression using the […] 5.0 program (Intuitive Software for Science, San Diego, CA, USA) from at least three independent experiments. A dose–response (inhibitor) vs. response curve using the least squares method was used to determine the IC50, SD, and R^2 of the data. The selectivity index was calculated as SI = IC50 of the compound in normal oral fibroblast cells/IC50 of the same compound for each cancer cell line (SCC-4, SCC-9, SCC-25, HCT-116, HT29 and HEP2G), and the mean was calculated when indicated.

The nature of the next data set: Hemolysis assay. The format is cell-based. The conditions noted are these: human erythrocytes; vs Triton X-100 = 100%; 300 µM (method) / 500 µM (Figure 2). On the procedure:
To determine the surfactant power of substances in biological membranes, a hemolysis assay was performed using human blood approved by the Research Ethics Committee of Universidade Federal Fluminense (CAAE: 43134721.4.0000.5626). Erythrocytes were collected by centrifugation at 1500 rpm for 15 min, washed with PBS (phosphate-buffered saline) supplemented with 10 mM glucose, and counted in an automatic cell counter (Thermo Fisher, Waltham, MA, USA). Erythrocytes were then plated in 96-well plates at a concentration of 4 × 10^8 cells/well in triplicates, and 10 µL of compounds was added at a final concentration of 300 µM in PBS with glucose (final volume 100 µL). In total, 10 µL of PBS was used as a negative control and 10 µL of PBS with 0.1% Triton X-100 as a positive control. Data reading was performed with EPOCH (BioTek Instruments, Winooski, VT, USA) at an absorbance of 540 nm, and the statistical data were generated using the […] Prism 5.0 program (Intuitive Software for Science, San Diego, CA, USA).

A further data set relates to SCC25 cells. As to the kind of experiment: MTT cell viability assay, SCC25 cells. The data set is classed as cell-based, human. On the procedure: as §1, §2, §3
The subject of a further data set is HT29 (adenocarcinoma). The experiment in a line: MTT cell viability assay, HT29. The format is cell-based. The method, then: as §2, §3

By IC50 is commonly meant the concentration that gives 50% inhibition. With `Cc1cccc(C)c1-n1cc(/C=C/C(=O)c2ccccc2N)nn1` [1f, (E)-1-(2-Aminophenyl)-3-(1-(2,6-dimethylphenyl)-1H-1,2,3-triazol-4-yl)prop-2-en-1-one], the “solubility (in words)” value in data set [1] is listed as “highly soluble”. The IC50 in the data set on HCT-116 (colon cancer) (Homo sapiens, HCT-116, 48 h, MTT) is 3.99 µM; in data set [2] it was 29.6 µM; with SCC25 cells (Homo sapiens, SCC-25, 48 h, MTT), 5.03 µM; in the data set on HT29 (adenocarcinoma) (Homo sapiens, HT-29, 48 h, MTT), 3.92 µM. In addition, the “HCT-116 S.I.” value in the data set on HCT-116 (colon cancer) (IC50 HGF / IC50 HCT-116) is reported as 7.41. The “cells in G2/M phase” value with SCC9 cells was 44.0%. The “fragmentation of DNA (Sub-G1 DNA-content)” value in the data set with SCC9 cells was determined as 23.3%. The compound further displayed a hemolysis at 300 µM in the data set “Hemolysis assay” of less than 2%. In addition, the “SCC25 S.I.” value with SCC25 cells (selective index = IC50 HGF / IC50 SCC25) came to 5.88. Besides, the “HT29 S.I.” value in the data set on HT29 (adenocarcinoma) (IC50 HGF / IC50 HT29) is given as 7.55.
